Patent US8962662B2, “Antimicrobial compositions and methods of use thereof” (Byocoat Enterprises, Inc., priority 2011, dated 2015)
Entries after “also recorded” stand apart in the source; their conditions may differ.

Key:
yeast and mold = assay: Yeast and mold growth (CFU) on whole poultry carcasses after spray treatment, day 1 versus day 7; format: cell-based; conditions: for log growth in yeast and mold over 7 days: day 7 minus day 1 log average
Experimental: (§1) The following solutions were prepared. A cetylpyridinium chloride (CPC) solution was prepared by combining 1.0 g of cetylpyridinium chloride (CAS No. 123-03-05) in 100 mL of water to form a nominal 1.0 wt % CPC test solution. An epsilon-polylysine (EPL) solution was prepared by combining 4.3 g epsilon-polylysine (CAS No. 25104-18-1) in water to form 100 mL of aqueous solution to form a nominal 4.3 wt % EPL test solution. The combination test solution was prepared by combining 1.0 g of cetylpyridinium chloride and 4.3 g epsilon-polylysine in water to form 100 mL of aqueous solution to form a standard concentration combination solution, and 3.7 g of this standard concentration solution was diluted up to 100 mL to form a combination test solution, which is diluted roughly 27-fold from the from the standard concentration solution.
(§2) The following test method was used. Whole poultry carcasses were collected from the processing line following evisceration and rinse. The carcasses were then treated with the CPC, EPL, or combined CPC+EPL products and dilution rates as listed above, using a Lillard spray application for 5 seconds. Following 10 seconds of dwell time, a 25 gram sample of the product was collected and immediately tested to establish a control sample set-point, and 325 grams of the same carcass were incubated at 37° C. for 168 hours (7 days). Following the incubation cycle, a second 25 gram sample was collected from the 325 gram control for testing evaluation of yeast and mold growth. A second 25 gram composite sample was collected from the same 325 gram control for pathogenic testing for salmonella presence. All samples were tested using AOAC accredited methods in an AOAC accredited API examined laboratory. Confirmation (split) samples were processed at ABC Research Laboratory.

Salmonella = assay: Pathogenic testing for salmonella presence on treated poultry carcass samples after 7 day incubation; format: cell-based; conditions: for salmonella prevalence rate (samples tested positive): after 7 day incubation
Experimental: as §1, §2

Compound	log growth in yeast and mold over 7 days (yeast and mold; CPC (1.0%) only) [log]	Log Avg, CPC Day 7 (yeast and mold; average of 10 samples, cetylpyridinium chloride (1.0%), after 7 days at 37° C.)	Log Avg, CPC Day 1 (yeast and mold; average of 10 samples, cetylpyridinium chloride (1.0%), day 1 set-point)	salmonella prevalence rate (samples tested positive) (Salmonella; CPC (1.0%) only) [%]	log growth in yeast and mold over 7 days (yeast and mold; EPL (4.3%) only) [log]	Log Avg, EPL Day 7 (yeast and mold; average of 10 samples, ε-poly-L-lysine (4.3%), after 7 days at 37° C.)	Log Avg, EPL Day 1 (yeast and mold; average of 10 samples, ε-poly-L-lysine (4.3%), day 1 set-point)	seven-day samples tested positive for Salmonella (Salmonella; EPL (4.3%) only, 10 samples)	salmonella prevalence rate (samples tested positive) (Salmonella; EPL (4.3%) only) [%]	Salmonella, EPL Day 7 (Salmonella; ε-poly-L-lysine (4.3%), after 7 days at 37° C.)
CCCCCCCCCCCCCCCC[n+]1ccccc1 [CPC, cetylpyridinium chloride]	4.995	7.264	2.269	20						
ε-poly-L-lysine [EPL]					3.677	6.97	3.293	4 of 10	40	NEGATIVE; also recorded: POSITIVE
